Assay results published in patent publication US9441006B2, “Polymorph of 2-[4-[(methylamino)carbonyl]-1H-pyrazol-1-yl]adenosine” (Farmak, a.s., priority 2013, dated 2016).
Read-outs that look alike come from different tables or passages of the source. Values belong to the molecule of their own block, whether it stands above or below them.

Legend:
[1] = Dissolution rate in water (Lasentec FBRM particle size distribution measurement); assay type: physicochemical; settings: 165 mg in 500 ml water, identical conditions, FIG. 4
Method: Equal amounts of both polymorphs (165 mg) were dissolved in the same amounts of water (500 ml) under identical conditions (dissolving regime, stirrer revolutions, etc.). It is obvious that the dissolution rate of polymorph E is approximately twofold. Polymorph E is completely dissolved within about 45 minutes, whereas the same amount of polymorph A is, under same conditions, dissolved after about 90 minutes.

[2] = background art, WO 2008/143667, cited from earlier work
[3] = Solubility of polymorph E in water in comparison with polymorph A; assay type: physicochemical; settings: at different temperatures
[4] = all known polymorphic forms; cited from earlier work

time to complete dissolution in water ([1]; monohydrate): about 90 minutes
SMILES: CNC(=O)c1cnn(-c2nc(N)c3ncn([C@@H]4O[C@H](CO)[C@@H](O)[C@H]4O)c3n2)c1 [polymorph A, 2-[4-[(methylamino)carbonyl]-1H-pyrazol-1-yl]adenosine monohydrate]
stability of the polymorph ([2]; monohydrate): relatively stable

SMILES: CNC(=O)c1cnn(-c2nc(N)c3ncn([C@@H]4O[C@H](CO)[C@@H](O)[C@H]4O)c3n2)c1 [Polymorph C, 2-[4-[(methylamino)carbonyl]-1H-pyrazol-1-yl]adenosine]
stability of the polymorph [2]: converted to unstable forms by heating

dissolution rate in water relative to polymorph A [1]: approximately twofold
time to complete dissolution in water [1]: about 45 minutes
solubility in water [3]: practically the same
SMILES: CNC(=O)c1cnn(-c2nc(N)c3ncn([C@@H]4O[C@H](CO)[C@@H](O)[C@H]4O)c3n2)c1 [polymorph E, 2-[4-[(methylamino)carbonyl]-1H-pyrazol-1-yl]adenosine]

SMILES: CNC(=O)c1cnn(-c2nc(N)c3ncn([C@@H]4O[C@H](CO)[C@@H](O)[C@H]4O)c3n2)c1 [regadenoson, 2-[4-[(Methylamino)carbonyl]-1H-pyrazol-1-yl]adenosine]
water solubility [4]: poor water solubility

SMILES: CNC(=O)c1cnn(-c2nc(N)c3ncn([C@@H]4O[C@H](CO)[C@@H](O)[C@H]4O)c3n2)c1 [amorphous form, 2-[4-[(methylamino)carbonyl]-1H-pyrazol-1-yl]adenosine]
stability of the polymorph [2]: unstable
